This note sets out measurements from patent EP0311163A2, “Use of site-specific modified lipolytic enzymes for the selective hydrolysis of organized lipid structures” (DUPHAR INTERNATIONAL RESEARCH B.V, priority 1987, dated 1989).

Assay in all cases: Binding to micellar cis-9-octadecenyl phosphocholine by UV absorption difference spectroscopy
Holding throughout (details): micellar ligand, N = number of lipid monomers per molecule of enzyme, KD = micellar dissociation constant, read-out: N.KD apparent dissociation constant

Assay [1] has as its target T1, Porcine pancreatic phospholipase A₂, [ε-Ol-Lys¹¹⁶]-AMPA (Sus scrofa, UniProt P00592).
T1 construct: Conversion of pro-PLA (i.e. Prec) into [ε-Acyl-Lys¹¹⁶]-AMPA; from tissue; host or cells: pig pancreas; chemically amidinated and oleoylated at Lys116
The source says: The following methods, in which the abbreviations used have the meanings given hereinafter, are used for determining the enzymatic activity, the lipid binding properties and the penetrating capacity of the site-specific mono-acylated phospholipases A2 belonging to the invention: -PLA: phospholipase […]: fully ε-amidinated pro-PLA -AMPA: fully ε-amidinated PLA -t-Boc: tertiary butoxycarbonyl -For: formyl -TFA: trifluoroacetic acid -Tris: tri(hydroxymethyl)amino methane -DFP: diisopropylfluorophosphate -DEAE: diethylamino ethyl -CM: carboxymethyl -FPLC: fast protein liquid chromatography -LC: liquid chromatography -TPCK: […]-2-ethanesulphonic acid -DABITC: dimethylamino azobenzene-iso-thiocyanate. • a. Protein concentrations are determined from the absorption at 280 nm using E 1 cm (1%) of 13.0 for porcine and bovine pancreatic ε-amidinated PLA and the mono-acylated analogs thereof. […] Monolayer experiments are carried out using the zero order through with two compartments and the surface barostat technique for measuring phospholipid hydrolysis ([…] and De Haas, Chem. Phys. Lipids, 10, (1973), 127-136). Calculation of the induction time (τ) is carried out as described by […] et al. J. Biol. Chem. 248 (1973), 4023-4034). Surface tension (π) is measured by means of the plate method by Wilhelmy using a thin platinum plate attached to a Beckman R II C Model LM 600 microbalance. • d. […]

Assay [2] deals with T2, Porcine pancreatic phospholipase A₂, [ε-Mal-Lys¹¹⁶]-AMPA (Sus scrofa, UniProt P00592).
T2 construct: Conversion of pro-PLA (i.e. Prec) into [ε-Acyl-Lys¹¹⁶]-AMPA; from tissue; host or cells: pig pancreas; chemically amidinated and maleylated at Lys116
The source says: (§1) The following methods, in which the abbreviations used have the meanings given hereinafter, are used for determining the enzymatic activity, the lipid binding properties and the penetrating capacity of the site-specific mono-acylated phospholipases A2 belonging to the invention: -PLA: phospholipase […]: fully ε-amidinated pro-PLA -AMPA: fully ε-amidinated PLA -t-Boc: tertiary butoxycarbonyl -For: formyl -TFA: trifluoroacetic acid -Tris: tri(hydroxymethyl)amino methane -DFP: diisopropylfluorophosphate -DEAE: diethylamino ethyl -CM: carboxymethyl -FPLC: fast protein liquid chromatography -LC: liquid chromatography -TPCK: […]-2-ethanesulphonic acid -DABITC: dimethylamino azobenzene-iso-thiocyanate. • a. Protein concentrations are determined from the absorption at 280 nm using E 1 cm (1%) of 13.0 for porcine and bovine pancreatic ε-amidinated PLA and the mono-acylated analogs thereof. […] Monolayer experiments are carried out using the zero order through with two compartments and the surface barostat technique for measuring phospholipid hydrolysis ([…] and De Haas, Chem. Phys. Lipids, 10, (1973), 127-136). Calculation of the induction time (τ) is carried out as described by […] et al. J. Biol. Chem. 248 (1973), 4023-4034). Surface tension (π) is measured by means of the plate method by Wilhelmy using a thin platinum plate attached to a Beckman R II C Model LM 600 microbalance. • d. Kinetic measurements with micellar diC8PC are carried out according to De Haas et al, Biochem. Biophys. Acta, 239, (1971) 252-266. […] From the table it appears that the presence of a covalently attached long chain fatty acid on […] or […] considerably improves the binding of the enzyme to the zwitterionic detergent. A larger chain length of the fatty acid leads to a lower apparent dissociation constant (N.KD), which means a greater affinity to the organized lipid-water interface which is formed by the micellar substrate analog. [table]

Assay [3] concerns the target T3, Porcine pancreatic phospholipase A₂, [ε-Cap-Lys¹¹⁶]-AMPA (Sus scrofa, UniProt P00592).
T3 construct: Conversion of pro-PLA (i.e. Prec) into [ε-Acyl-Lys¹¹⁶]-AMPA; from tissue; host or cells: pig pancreas; chemically amidinated and caprinoylated at Lys116
From the text: as §1

Assay [4] concerns the target T4, Bovine pancreatic phospholipase A₂, [Arg⁶,ε-Pal-Lys¹⁰]-AMPA (Bos taurus, UniProt P00593, N28R).
T4 construct: Conversion of fully ε-amidinated bovine pancreatic AMPrec in [Arg⁶, ε-Pal-Lys¹⁰]-AMPA; from tissue; host or cells: bovine pancreas; semisynthetic: amidinated fragment 11-123 re-elongated with Pal-Lys, Ile, Met and Ala.Leu.Trp.Gln.Phe.Arg.Gly
From the text: as §1

For assay [5], the target named is T5, Bovine pancreatic phospholipase A₂, [Arg⁶]-AMPA (Bos taurus, UniProt P00593, N28R).
T5 construct: fully ε-amidinated according to the method by Wallace and Harris, Biochem. J., 217, (1984), 589-594, and converted into AMPA; from tissue; host or cells: bovine pancreas
From the text: as §1

The target in assay [6] is T6, Porcine pancreatic phospholipase A₂, [ε-NH₂-Lys¹¹⁶]-AMPA (Sus scrofa, UniProt P00592).
T6 construct: incubated with 0.1% (wt/wt) trypsin at pH 8.0 (10 mM Tris, 5 mM Ca²⁺) in order to obtain [ε-NH₂-Lys-]AMPA; from tissue; host or cells: pig pancreas; partial amidination in the presence of diC8GS, then trypsin conversion of the pro-enzyme
From the text: as §1

In assay [7] the target is T7, Porcine pancreatic phospholipase A₂ (PLA), native (Sus scrofa, UniProt P00592).
T7 construct: pancreatic pro-PLA's can be purified and converted into the corresponding PLA's; from tissue; host or cells: pig pancreas
From the text: as §1

The target of assay [8] is T8, Porcine pancreatic phospholipase A₂, AMPA (fully ε-amidinated PLA) (Sus scrofa, UniProt P00592).
T8 construct: fully ε-amidinated according to the method by Wallace and Harris, Biochem. J., 217, (1984), 589-594, and converted into AMPA; from tissue; host or cells: pig pancreas; chemically amidinated as the pro-enzyme, then converted to the active enzyme
From the text: as §1

For assay [9], the target named is T9, Bovine pancreatic phospholipase A₂, AMPA (fully ε-amidinated PLA) (Bos taurus, UniProt P00593).
T9 construct: fully ε-amidinated according to the method by Wallace and Harris, Biochem. J., 217, (1984), 589-594, and converted into AMPA; from tissue; host or cells: bovine pancreas; chemically amidinated as the pro-enzyme, then converted to the active enzyme
From the text: as §1

Assay [10] has as its target T10, Porcine pancreatic phospholipase A₂, [ε-Ac-Lys¹¹⁶]-AMPA (Sus scrofa, UniProt P00592).
T10 construct: Conversion of pro-PLA (i.e. Prec) into [ε-Acyl-Lys¹¹⁶]-AMPA; from tissue; host or cells: pig pancreas; chemically amidinated and acetylated at Lys116
From the text: as §1

Assay [11] addresses T11, Porcine pancreatic phospholipase A₂, [ε-Lau-Lys¹¹⁶]-AMPA (Sus scrofa, UniProt P00592).
T11 construct: Conversion of pro-PLA (i.e. Prec) into [ε-Acyl-Lys¹¹⁶]-AMPA; from tissue; host or cells: pig pancreas; chemically amidinated and lauroylated at Lys116
From the text: as §1

Assay [12] concerns the target T12, Porcine pancreatic phospholipase A₂, [ε-Pal-Lys¹¹⁶]-AMPA (Sus scrofa, UniProt P00592).
T12 construct: Conversion of pro-PLA (i.e. Prec) into [ε-Acyl-Lys¹¹⁶]-AMPA; from tissue; host or cells: pig pancreas; chemically amidinated and palmitoylated at Lys116
From the text: as §1

Assay [13] has as its target T13, Bovine pancreatic phospholipase A₂ (PLA), native (Bos taurus, UniProt P00593).
T13 construct: pancreatic pro-PLA's can be purified and converted into the corresponding PLA's; from tissue; host or cells: bovine pancreas
From the text: as §1

Molecules are shown by their SMILES.

T13 sequence (P00593 23-145): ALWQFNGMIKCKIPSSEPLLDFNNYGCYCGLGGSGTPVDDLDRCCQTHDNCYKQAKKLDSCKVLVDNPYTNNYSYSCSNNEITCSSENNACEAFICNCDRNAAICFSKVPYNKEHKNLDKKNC
T9 sequence (P00593 23-145): as above
T8 sequence (P00592 23-146): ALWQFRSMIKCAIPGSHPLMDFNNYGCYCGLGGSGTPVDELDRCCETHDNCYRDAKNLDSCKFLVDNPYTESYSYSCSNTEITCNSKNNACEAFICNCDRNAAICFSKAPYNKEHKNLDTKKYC
T6 sequence (P00592 23-146): as above
T7 sequence (P00592 23-146): as above
T2 sequence (P00592 23-146): as above
T12 sequence (P00592 23-146): as above
T10 sequence (P00592 23-146): as above
T3 sequence (P00592 23-146): as above
T11 sequence (P00592 23-146): as above
T1 sequence (P00592 23-146): as above
T4 sequence (P00593 23-145 N28R): as the sequence (P00593 23-145) above, with N6R counted along it
T5 sequence (P00593 23-145 N28R): as the sequence (P00593 23-145) above, with N6R counted along it

Regarding `CCCCCCCC/C=C\CCCCCCCCOP(=O)([O-])OCC[N+](C)(C)C` [cis-9-octadecenylphosphocholine], the Kd in assay [1] stood at 18 µM; in assay [2] it was 43 µM; in assay [3], 33 µM; in assay [4], 20 µM; in assay [5], 120 µM; in [6], 44 µM. Moreover, the Kd in [7] is 58 µM; in assay [8], 76 µM; in assay [9] it was 3200 µM; in assay [10], 38 µM; in assay [11], 29 µM; in assay [12] it was 12 µM. For the same compound, the Kd in [13] stood at 660 µM.
